Like-named read-outs stand apart in the source and are kept apart here.

Common to all, as to assay type: cell-based
In test [1] the test system is Human peripheral blood mononuclear cells (PBMCs). The experiment in a line: Human PBMC Assay, cytokine release (HTRF). Conditions: PBMC, 24 hours. From the text:
Human peripheral blood mononuclear cells (PBMCs) were isolated from fresh Leukopak using magnetic separation. Briefly, erythrocytes and granulocytes were magnetically labeled with Erythrocyte Depletion MicroBeads (Miltenyi Biotec) and Granulocyte Depletion MicroBeads (Miltenyi Biotec), respectively. The cell suspension was loaded onto a Multi-24 Column Block (Miltenyi Biotec) and placed in the magnetic field of a MultiMACS Cell24 Separator Plus (Miltenyi Biotec). The unlabelled PBMCs were collected in the run through. PBMCs were resuspended in CryoStor® CS10 ([…]) and frozen. On the day before the assay, PBMCs were thawed in warm assay buffer (RPMI+10% FBS) and resuspended in assay buffer+10 ng/ml hIL3 (R&D Systems). Cells were rested at 37° C.+5% CO2 overnight. The following day, cells were spun down and resuspended in fresh assay buffer. 300,000 cells were added to each well of plates containing test compound. For test compound preparation, each compound was initially diluted to 1 mM in DMSO and further diluted in assay buffer. A 4-fold 11-point titration starting from 15 μM was performed. Cells were incubated with test compound at 37° C.+5% CO2 for 24 hours before supernatant was harvested. Human interleukin 6 (hIL6), human tumor necrosis factor alpha (hTNFα), and human interferon alpha (hIFNα) were quantified in the supernatant using homogeneous time resolved fluorescence (Cisbio).
(§1) Each assay included a positive control compound (referred to herein as “benchmark,” see, e.g., TABLE 3 below, and taken from International Patent Publication No. WO2017/072662, structure shown below) and a negative control (growth medium). […] The structure of the benchmark compound from International Patent Publication No. WO 2017/072662 is as follows: […]

In a further test the target is T1, hTLR7 (Homo sapiens, UniProt Q9NYK1).
T1 construct: host or cells: HEK-Blue hTLR7 reporter cells (HEK293-derived, own knowledge)
T1 sequence (Q9NYK1 27-1049): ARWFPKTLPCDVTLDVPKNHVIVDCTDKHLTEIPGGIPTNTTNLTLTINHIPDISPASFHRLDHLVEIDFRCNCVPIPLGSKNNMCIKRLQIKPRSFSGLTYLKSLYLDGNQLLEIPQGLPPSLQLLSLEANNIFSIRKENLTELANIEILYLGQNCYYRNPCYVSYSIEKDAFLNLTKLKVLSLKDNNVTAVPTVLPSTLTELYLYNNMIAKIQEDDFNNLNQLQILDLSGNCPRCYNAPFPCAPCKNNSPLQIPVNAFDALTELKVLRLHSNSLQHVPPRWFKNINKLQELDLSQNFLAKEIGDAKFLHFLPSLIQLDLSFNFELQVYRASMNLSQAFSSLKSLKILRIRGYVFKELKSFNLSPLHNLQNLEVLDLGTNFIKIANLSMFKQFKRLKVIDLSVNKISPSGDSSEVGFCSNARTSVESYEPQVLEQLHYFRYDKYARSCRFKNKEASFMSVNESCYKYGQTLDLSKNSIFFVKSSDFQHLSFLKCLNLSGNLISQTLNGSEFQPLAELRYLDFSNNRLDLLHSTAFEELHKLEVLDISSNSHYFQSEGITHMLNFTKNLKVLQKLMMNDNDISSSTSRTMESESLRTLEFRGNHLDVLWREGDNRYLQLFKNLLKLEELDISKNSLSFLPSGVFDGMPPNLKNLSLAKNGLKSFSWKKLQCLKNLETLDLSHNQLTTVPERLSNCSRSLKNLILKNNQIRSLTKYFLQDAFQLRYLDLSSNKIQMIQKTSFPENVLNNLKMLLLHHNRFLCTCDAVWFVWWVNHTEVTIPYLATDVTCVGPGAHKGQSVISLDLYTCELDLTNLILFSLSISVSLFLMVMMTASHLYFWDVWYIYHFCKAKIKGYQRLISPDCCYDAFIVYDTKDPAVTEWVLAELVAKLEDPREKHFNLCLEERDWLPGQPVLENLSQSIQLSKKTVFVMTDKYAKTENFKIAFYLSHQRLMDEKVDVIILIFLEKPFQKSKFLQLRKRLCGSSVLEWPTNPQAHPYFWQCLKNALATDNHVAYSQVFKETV
The experiment in a line: Reporter Gene Assay (RGA), HEK-Blue hTLR7 reporter cells, SEAP readout. The conditions noted are these: overnight incubation, SEAP absorbance 620 nm. How it is done:
(§2) 1.5×10^4 HEK-Blue™ hTLR7 (Invivogen, San Diego, CA) or HEK-Blue™ mTLR7 (Invivogen, San Diego, CA) reporter cells were treated with a titration series of test compound (4-fold titration from […], 11 points). Compounds were initially diluted to 1 mM in DMSO and subsequently serial-diluted in assay media (HEK-Blue™ Detection; Invivogen, San Diego, CA). Cells with test compound were incubated overnight at 37° C.+5% CO2, and the amount of secreted embryonic alkaline phosphatase (SEAP) was determined by measuring absorbance (620 nm) using a Synergy™ H1 microplate reader.
as §1

The next test addresses T2, mTLR7 (Mus musculus, UniProt P58681).
T2 construct: host or cells: HEK-Blue mTLR7 reporter cells (HEK293-derived, own knowledge)
T2 sequence (P58681 27-1050): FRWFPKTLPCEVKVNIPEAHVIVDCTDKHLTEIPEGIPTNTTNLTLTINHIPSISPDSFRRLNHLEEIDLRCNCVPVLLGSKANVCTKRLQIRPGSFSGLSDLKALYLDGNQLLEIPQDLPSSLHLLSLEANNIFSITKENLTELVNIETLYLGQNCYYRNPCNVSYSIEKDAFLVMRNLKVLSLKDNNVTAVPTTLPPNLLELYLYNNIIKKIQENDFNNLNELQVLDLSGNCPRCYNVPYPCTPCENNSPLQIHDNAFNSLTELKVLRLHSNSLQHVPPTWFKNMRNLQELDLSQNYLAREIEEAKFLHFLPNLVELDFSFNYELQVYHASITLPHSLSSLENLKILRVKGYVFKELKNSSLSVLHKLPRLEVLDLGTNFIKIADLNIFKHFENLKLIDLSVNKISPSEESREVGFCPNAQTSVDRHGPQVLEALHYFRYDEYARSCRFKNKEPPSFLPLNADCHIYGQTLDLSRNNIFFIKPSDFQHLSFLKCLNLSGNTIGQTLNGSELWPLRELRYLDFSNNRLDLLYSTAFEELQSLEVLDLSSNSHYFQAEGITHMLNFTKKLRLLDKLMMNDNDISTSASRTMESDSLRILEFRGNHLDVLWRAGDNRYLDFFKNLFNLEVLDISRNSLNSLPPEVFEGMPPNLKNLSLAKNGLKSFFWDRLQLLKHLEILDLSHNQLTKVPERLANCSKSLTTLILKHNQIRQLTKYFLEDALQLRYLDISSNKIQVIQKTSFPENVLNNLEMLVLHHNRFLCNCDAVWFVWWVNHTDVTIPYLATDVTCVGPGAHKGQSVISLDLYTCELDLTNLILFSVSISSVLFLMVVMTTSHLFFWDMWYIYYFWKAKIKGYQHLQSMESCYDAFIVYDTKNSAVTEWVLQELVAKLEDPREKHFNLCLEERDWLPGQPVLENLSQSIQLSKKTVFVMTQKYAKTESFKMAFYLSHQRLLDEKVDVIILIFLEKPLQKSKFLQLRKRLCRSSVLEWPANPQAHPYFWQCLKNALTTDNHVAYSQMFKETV
Put plainly: Reporter Gene Assay (RGA), HEK-Blue mTLR7 reporter cells, SEAP readout. Conditions: overnight incubation, SEAP absorbance 620 nm. On the procedure: as §2, §1
In general terms: A reporter such as luciferase makes a cellular process visible.

The mark [2] stands for this setting: hIFNα in supernatant, EC50 values approximated and divided into groups, read-out: PBMC IFNa EC50.

The term EC50 denotes the midpoint of the concentration-response curve. In the case of `CCOc1nc(N)c2nc(O)n(Cc3ccc(CNC4CCNC4)cc3OC)c2n1` (stereo in doubt) [Compound 133, (S)-6-amino-2-ethoxy-9-(2-methoxy-4-((pyrrolidin-3-ylamino)methyl)benzyl)-9H-purin-8-ol], the concentration giving a half-maximal response (EC50) in test [1] (setting [2]) is over 10 nM; at hTLR7 it was 178 nM; on mTLR7, 859 nM.

Regarding `CCCCCNc1nc(N)nc2ccn(Cc3ccc(CN4CCN(CCNC(=O)CC(SC[C@@H](N)C(=O)O)C(=O)O)CC4)cc3OC)c12` (stereo partly drawn) [Benchmark, reference compound], the EC50 at hTLR7 came out at 27 nM; on mTLR7, 95.4 nM.

`CCOc1nc(N)c2nc(O)n(Cc3ccc(CNC/C=C/CN)cc3OC)c2n1` [Compound 126, (E)-6-amino-9-(4-(((4-aminobut-2-en-1-yl)amino)methyl)-2-methoxybenzyl)-2-ethoxy-9H-purin-8-ol]: the EC50 in test [1] (setting [2]) is over 10 nM; on hTLR7, 33 nM; on mTLR7, 659 nM.

With `CCOc1nc(N)c2nc(O)n(Cc3ccc(CNC4CCCNC4)cc3OC)c2n1` (stereo not drawn) [Compound 127, 6-amino-2-ethoxy-9-(2-methoxy-4-((piperidin-3-ylamino)methyl)benzyl)-9H-purin-8-ol], the results for the EC50 (in test [1] (setting [2]); on hTLR7; on mTLR7) were over 10 nM, 175 nM and 1030 nM, respectively.

As to `CCOc1nc(N)c2nc(O)n(Cc3ccc(CNC4CNC4)cc3OC)c2n1` [Compound 129, 6-amino-9-(4-((azetidin-3-ylamino)methyl)-2-methoxybenzyl)-2-ethoxy-9H-purin-8-ol], the EC50 was over 10 nM in test [1] (setting [2]), 81.1 nM at hTLR7 and 541 nM on mTLR7.

For `CCOc1nc(N)c2nc(O)n(Cc3ccc(CNC4CC5(CNC5)C4)cc3OC)c2n1` [Compound 130, 9-(4-(((2-azaspiro[3.3]heptan-6-yl)amino)methyl)-2-methoxybenzyl)-6-amino-2-ethoxy-9H-purin-8-ol], the values for the 50% effective concentration (EC50) (in test [1] (setting [2]); on hTLR7; at mTLR7) were over 10 nM, 202 nM and 1270 nM, respectively.

On to `CCOc1nc(N)c2nc(O)n(Cc3ccc(CNCCCN4CCNCC4)cc3OC)c2n1` [Compound 131, 6-amino-2-ethoxy-9-(2-methoxy-4-(((3-(piperazin-1-yl)propyl)amino)methyl)-benzyl)-9H-purin-8-ol], for which the EC50 in test [1] (setting [2]) is over 10 nM; on hTLR7 it was 86.1 nM; on mTLR7, 676 nM.

In the case of `CCOc1nc(N)c2nc(O)n(Cc3ccc(CNCCN4CCNCC4)cc3OC)c2n1` [Compound 134, 6-amino-2-ethoxy-9-(2-methoxy-4-(((2-(piperazin-1-yl)ethyl)amino)methyl)-benzyl)-9H-purin-8-ol], the values for the EC50 (in test [1] (setting [2]); on hTLR7; on mTLR7) were over 10 nM, 363 nM and 1650 nM, respectively.

In the case of `CCOc1nc(N)c2nc(O)n(Cc3ccc(CNCC(O)CN4CCOCC4)cc3OC)c2n1` (stereo not drawn) [Compound 136, 6-amino-2-ethoxy-9-(4-(((2-hydroxy-3-morpholinopropyl)amino)methyl)-2-methoxybenzyl)-9H-purin-8-ol], the EC50 in test [1] (setting [2]) is over 10 nM; on hTLR7 it was 223 nM; at mTLR7, 1710 nM.

Take `CCOc1nc(N)c2nc(O)n(Cc3ccc(CN4CCN(C(=O)CCCCCNC(=O)CC(SC[C@@H](N)C(=O)O)C(=O)O)CC4)cc3OC)c2n1` (stereo partly drawn) [Compound 148, 2-(((S)-2-amino-2-carboxyethyl)thio)-4-((6-(4-(4-((6-amino-2-ethoxy-8-hydroxy-9H-purin-9-yl)methyl)-3-methoxybenzyl)piperazin-1-yl)-6-oxohexyl)amino)-4-oxobutanoic Acid]: the concentration for a half-maximal effect (EC50) in test [1] (setting [2]) was over 10 nM; at hTLR7, 167 nM; at mTLR7, 1260 nM.

With `CCOc1nc(N)c2nc(O)n(Cc3ccc(CN4CCN(C(=O)CCOCCOCCOCCNC(=O)CC(SC[C@@H](N)C(=O)O)C(=O)O)CC4)cc3OC)c2n1` (stereo partly drawn) [Compound 149, (19S)-19-amino-1-(4-(4-((6-amino-2-ethoxy-8-hydroxy-9H-purin-9-yl)methyl)-3-methoxybenzyl)piperazin-1-yl)-16-carboxy-1,14-dioxo-4,7,10-trioxa-17-thia-13-azaicosan-20-oic Acid], the EC50 is over 10 nM in test [1] (setting [2]), 520 nM at hTLR7 and 1260 nM on mTLR7.

With `CCCCOc1nc(N)c2nc(O)n(Cc3ccc(CNCc4ccccc4)cc3OC)c2n1` [Compound 165, 6-amino-9-(4-((benzylamino)methyl)-2-methoxybenzyl)-2-butoxy-9H-purin-8-ol], the EC50 is under 0.1 nM in test [1] (setting [2]); 6990 nM in test [1] (hIL6 in supernatant, read-out: PBMC IL6 EC50); under 0.1 nM on hTLR7; under 0.1 nM at mTLR7.

Consider `CCCCOc1nc(N)c2nc(O)n(Cc3ccc(CCN4CCC5(CCNCC5)CC4)cc3OC)c2n1` [Compound 177, 9-(4-(2-(3,9-diazaspiro[5.5]undecan-3-yl)ethyl)-2-methoxybenzyl)-6-amino-2-butoxy-9H-purin-8-ol], for which the EC50 in test [1] (setting [2]) was over 10 nM; at hTLR7, 411 nM; on mTLR7 it was 15500 nM.

For the compound `CCCCOc1nc(N)c2nc(O)n(Cc3ccc(CCNC4CCNCC4)cc3OC)c2n1` [Compound 179, 6-amino-2-butoxy-9-(2-methoxy-4-(2-(piperidin-4-ylamino)ethyl)benzyl)-9H-purin-8-ol], the 50% effective concentration (EC50) in test [1] (setting [2]) was over 10 nM; on hTLR7 it was 181 nM; on mTLR7 it was 422 nM.
